Values quoted from earlier work, collected in PMC7838024 (Acta Pharmaceutica Sinica. B, 2020).

Conditions: rats, doses from 0.5 to 1.5 mg/kg

SMILES: CO[C@H]1C(=O)[C@]2(C)[C@@H](OC)C[C@H]3OC[C@@]3(OC(C)=O)[C@H]2[C@H](OC(=O)c2ccccc2)[C@]2(O)C[C@H](OC(=O)[C@H](O)[C@@H](NC(=O)OC(C)(C)C)c3ccccc3)C(C)=C1C2(C)C [CTX, cabazitaxel]
- central nervous system toxicity: dose-dependent central nervous system toxicity
